Measurements as given in patent US7838207B2, “Surrogate cell-based system and method for assaying the activity of hepatitis C virus NS3 protease” (Boehringer Ingelheim Canada Ltd., priority 1999, dated 2010).

Tested on: tetracycline transactivator (tTA)
Assay: Tetracycline internal control: luciferase assay in 293 cells co-transfected with chimera G and pUHC13-3 reporter
Type: cell-based
Settings: in the presence of tetracycline (over 2,000,000 cps in its absence)
Description: Expression of the luciferase reporter gene is controlled by NS3 processing of a tetracycline responsive transcriptional trans-activator. Luciferase assay performed on extracts of 293 cells co-transfected with construct G or H, or the positive control tTA-producing plasmid (pUHD15-1), and the pUHC13-3 plasmid containing the luciferase reporter. Closed and open bars indicate the absence and presence of tetracycline, respectively. Note that construct G produces a tetracycline controlled signal; inactivation of the NS3 protease activity (in construct H) abolishes this signal.
The three families (clones A, D, and G) of HCV-tTA chimeras, and their active site and cleavage site mutant variants, were each co-transfected with the pUHC13-3 reporter into 293 cells to determine the extent of NS3-dependent luciferase expression (FIG. 6). Cells in 35 mm wells were co-transfected with each of the constructs described in FIGS. 2A to 2I and the pUHC13-3 reporter plasmid using the calcium phosphate method. The cells were harvested 48 hours post-transfection and washed twice in phosphate buffered saline. […] An aliquot of 10 μl of supernatant was mixed with 50 μl of the luciferase assay reagent (Promega) in a 96 well plate and the amount of light produced measured using a Digene luminometer or Packard top-count scintillation counter. […]

In the case of `CN(C)[C@@H]1C(O)=C(C(N)=O)C(=O)[C@@]2(O)C(O)=C3C(=O)c4c(O)cccc4[C@@](C)(O)[C@H]3C[C@@H]12` [tetracycline], the Luciferase activity was 40000 cps.
